Among the test systems are CCRF-CEM leukemia; HCT-15 colon; MCF7 breast; MDA-MB-231 breast; OVCAR-3 ovarian; OVCAR-8 ovarian; RXF 393 renal; SK-MEL-2 melanoma; U251 CNS; UACC-62 melanoma.
Holding throughout (assay): growth of human tumour cells (NCI), 48 h

Results on eight molecules are retold here after PubChem BioAssay (NCI).

Structures are written as SMILES.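 All cell lines were grown in 96-well plates and treated with compound for 48 hours. GI50: concentration for 50% inhibition of growth. TGI denotes the concentration required for complete inhibition of growth.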

Consider `Cc1[nH]nc2c1N=C(c1ccccc1Cl)c1cc([N+](=O)[O-])ccc1N2`, for which the GI50 in the test on CCRF-CEM leukemia is 0.76 µM; in the test with HCT-15 colon, 0.198 µM; in the test with MCF7 breast it was 0.142 µM; in the test with MDA-MB-231 breast it was 4.42 µM; with OVCAR-3 ovarian it was 0.145 µM; in the test on OVCAR-8 ovarian, above 25 µM. Further, the GI50 with RXF 393 renal was 0.245 µM; in the test with SK-MEL-2 melanoma, 0.126 µM; in the test with U251 CNS it was 0.511 µM. Further, the TGI was above 25 µM in the test on CCRF-CEM leukemia; above 25 µM in the test with HCT-15 colon; above 25 µM with MCF7 breast; above 25 µM in the test on MDA-MB-231 breast; 0.836 µM in the test on OVCAR-3 ovarian; above 25 µM in the test on OVCAR-8 ovarian. For the same molecule, the TGI in the test with RXF 393 renal is 1.92 µM; in the test with SK-MEL-2 melanoma, above 25 µM; in the test on U251 CNS, above 25 µM.

Turning to `NC1=Nc2cc(OCCCN3Cc4ccccc4C3)c(OCC3CC3)cc2C12CCCC2`, the GI50 is 2.45 µM with CCRF-CEM leukemia; 2.1 µM with HCT-15 colon; 1.8 µM in the test with MCF7 breast; 1.62 µM with MDA-MB-231 breast; 2.69 µM with OVCAR-3 ovarian; 3.71 µM in the test on OVCAR-8 ovarian. The GI50 with RXF 393 renal is 1.34 µM; in the test with SK-MEL-2 melanoma, 2.35 µM; with U251 CNS, 1.8 µM; in the test on UACC-62 melanoma, 1.9 µM. Besides, the TGI in the test on CCRF-CEM leukemia came out at 9.26 µM; in the test on HCT-15 colon, 6.51 µM; with MCF7 breast, 4.03 µM; in the test on MDA-MB-231 breast, 3.65 µM; in the test on OVCAR-3 ovarian it was 8.68 µM; with OVCAR-8 ovarian, 13.9 µM. Also, the TGI worked out at 3.58 µM in the test on RXF 393 renal, 4.7 µM in the test on SK-MEL-2 melanoma, 3.88 µM in the test with U251 CNS and 3.87 µM in the test on UACC-62 melanoma.

Regarding `C/C(=N\N=C(N)N)C(CN(C)C)C(c1ccccc1)c1c(O)c2ccccc2oc1=O` (stereo unspecified), the TGI with CCRF-CEM leukemia, in the test with HCT-15 colon, with MCF7 breast, in the test on MDA-MB-231 breast, with OVCAR-3 ovarian and in the test with OVCAR-8 ovarian was above 100 µM in each case. In addition, the TGI in the test on RXF 393 renal, with SK-MEL-2 melanoma, in the test on U251 CNS and in the test with UACC-62 melanoma was above 100 µM in each case.

For `C[C@H](N)C(=O)N1C[C@H](CCCB(O)O)[C@](N)(C(=O)O)C1`, the GI50 in the test with CCRF-CEM leukemia, in the test on HCT-15 colon, in the test with MCF7 breast, with MDA-MB-231 breast, in the test on OVCAR-3 ovarian and in the test on OVCAR-8 ovarian was above 100 µM throughout. Besides, the GI50 in the test on RXF 393 renal, in the test on SK-MEL-2 melanoma, in the test on U251 CNS and in the test with UACC-62 melanoma was above 100 µM throughout. For the same molecule, the TGI in the test on CCRF-CEM leukemia, in the test on HCT-15 colon, with MCF7 breast, with MDA-MB-231 breast, with OVCAR-3 ovarian and in the test with OVCAR-8 ovarian was above 100 µM throughout. Moreover, the TGI in the test on RXF 393 renal, with SK-MEL-2 melanoma, with U251 CNS and in the test with UACC-62 melanoma was above 100 µM each time.

With `COc1ccc(OC)c2c(=S)c3ccccc3[nH]c12`, the TGI was above 86.1 µM with CCRF-CEM leukemia; above 92.5 µM in the test on HCT-15 colon; above 100 µM in the test with MCF7 breast; above 100 µM with MDA-MB-231 breast; above 100 µM in the test on OVCAR-3 ovarian; above 100 µM with OVCAR-8 ovarian. For the same molecule, the TGI in the test on RXF 393 renal, in the test with SK-MEL-2 melanoma, with U251 CNS and with UACC-62 melanoma was above 100 µM in each case.

Take `C=C1C(=O)O[C@H]2[C@H]1CC/C(COC(=O)c1ccccc1)=C\CC[C@@]1(C)O[C@@H]21`: the GI50 in the test with CCRF-CEM leukemia is 0.281 µM; in the test with HCT-15 colon, 0.8 µM; with MCF7 breast, 0.497 µM; with MDA-MB-231 breast it was 1.69 µM; in the test with OVCAR-3 ovarian it was 0.482 µM; in the test on OVCAR-8 ovarian, 2.28 µM. Besides, the GI50 with RXF 393 renal was 1.14 µM; with SK-MEL-2 melanoma, 1.94 µM; in the test with U251 CNS, 1.67 µM; with UACC-62 melanoma, 1.44 µM. Besides, the TGI was 1.3 µM in the test with CCRF-CEM leukemia; 2.3 µM in the test on HCT-15 colon; 2.04 µM in the test with MCF7 breast; 4.36 µM with MDA-MB-231 breast; 1.74 µM with OVCAR-3 ovarian; 9.28 µM in the test with OVCAR-8 ovarian. Further, the TGI in the test on RXF 393 renal worked out at 2.58 µM; in the test on SK-MEL-2 melanoma, 4.02 µM; with U251 CNS, 3.37 µM; with UACC-62 melanoma it was 3.13 µM.

For `CCSc1nnc(-c2ccc3ccccc3c2O)n1-c1ccc(Cl)cc1`, the GI50 is 3.58 µM in the test with CCRF-CEM leukemia; 3.13 µM with HCT-15 colon; 6.66 µM in the test on MCF7 breast; above 100 µM in the test on MDA-MB-231 breast; 29.4 µM with OVCAR-3 ovarian; 5.5 µM with OVCAR-8 ovarian. The GI50 was 42.3 µM in the test on RXF 393 renal, above 100 µM in the test on SK-MEL-2 melanoma, 4.05 µM in the test with U251 CNS and 4.6 µM in the test on UACC-62 melanoma. Also, the TGI with CCRF-CEM leukemia, with HCT-15 colon, with MCF7 breast, in the test with MDA-MB-231 breast, with OVCAR-3 ovarian and with OVCAR-8 ovarian was above 100 µM each time. The TGI with RXF 393 renal, in the test on SK-MEL-2 melanoma, in the test with U251 CNS and in the test on UACC-62 melanoma was above 100 µM each time.

For the molecule `CC(=O)OC1Oc2ccccc2-c2oc(=O)c(-c3cc4ccccc4oc3=O)cc21` (stereo unspecified), the GI50 with CCRF-CEM leukemia is 23.2 µM; in the test with HCT-15 colon it was 22.3 µM; in the test on MCF7 breast, 15.3 µM; with MDA-MB-231 breast, 17.4 µM; with OVCAR-3 ovarian, 19.1 µM; in the test on OVCAR-8 ovarian, 17.8 µM. Moreover, the GI50 in the test with SK-MEL-2 melanoma was 35 µM; with U251 CNS, 14.7 µM; in the test with UACC-62 melanoma, 17.4 µM. For the same molecule, the TGI was 54.2 µM in the test with CCRF-CEM leukemia; above 100 µM in the test on HCT-15 colon; 34.1 µM with MCF7 breast; 35 µM in the test on MDA-MB-231 breast; 46.6 µM in the test on OVCAR-3 ovarian; 36.7 µM in the test with OVCAR-8 ovarian. Besides, the TGI with SK-MEL-2 melanoma was above 100 µM; in the test with U251 CNS it was 28.3 µM; in the test on UACC-62 melanoma, 35.1 µM.
